Data from patent US9656963B2 (BRISTOL-MYERS SQUIBB COMPANY, priority 2012, dated 2017).

target: T1, hGPR40 (Homo sapiens, UniProt O14842); assay: FDSS-Based Intracellular Calcium Assay; format: cell-based; conditions: cells expressing GPR40, intracellular Ca2+ response
T1 construct: 3x FLAG; expressed in transfected cells
Method in brief: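 Flag-tagged GPR40-expressing cells plated overnight in serum-free, phenol red-free DMEM. Compounds added from DMSO stocks, diluted in assay buffer and added as 3x solution. Intracellular Ca^2+ flux read by fluorescence on an FDSS reader.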

T1 sequence (O14842 whole entry): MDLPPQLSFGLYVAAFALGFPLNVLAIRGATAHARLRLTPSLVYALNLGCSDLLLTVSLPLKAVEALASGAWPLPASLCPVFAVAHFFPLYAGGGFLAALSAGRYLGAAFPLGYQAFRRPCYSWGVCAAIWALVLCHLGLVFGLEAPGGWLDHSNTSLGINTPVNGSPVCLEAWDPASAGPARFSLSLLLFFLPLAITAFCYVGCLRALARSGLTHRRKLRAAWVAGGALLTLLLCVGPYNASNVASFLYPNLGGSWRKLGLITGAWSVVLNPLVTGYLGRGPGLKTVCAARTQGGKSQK

Row | EC50 [nM] | Structure (SMILES)
1 | 430 | CC(C)c1ccccc1Oc1ccc(N2N=C(C#N)CC2CC(=O)O)cc1 (racemic) [Example 29, 2-(3-cyano-1-(4-(2-isopropylphenoxy)phenyl)-4,5-dihydro-1H-pyrazol-5-yl)acetic acid]
2 | 1050 | COc1ccc(F)c(-c2ccc(Cc3ccc(N4N=C(C#N)C(C)C4CC(=O)O)cc3)c(C)c2)c1 (single isomer, unassigned) [Example 52, Isomer 1, 2-(3-cyano-1-(4-((2′-fluoro-5′-methoxy-3-methylbiphenyl-4-yl)methyl)phenyl)-4-methyl-4,5-dihydro-1H-pyrazol-5-yl)acetic acid]
3 | 5760 | C[C@@H]1C(C(F)(F)F)=NN(c2ccc(CCCc3ccccc3)cc2)[C@H]1CC(=O)O [Example 71, 2-((4S,5S)-4-methyl-1-(4-(3-phenylpropyl)phenyl)-3-(trifluoromethyl)-4,5-dihydro-1H-pyrazol-5-yl)acetic acid]
4 | 470 | COc1ccc(F)c(-c2ccc(Cc3ccc(N4N=C(C(F)(F)F)CC4CC(=O)O)cc3)c(Cl)c2)c1 (single isomer, unassigned) [Example 20, Isomer 1, 2-(1-(4-((3-chloro-2′-fluoro-5′-methoxybiphenyl-4-yl)methyl)phenyl)-3-(trifluoromethyl)-4,5-dihydro-1H-pyrazol-5-yl)acetic acid]
5 | 230 | COc1ccc(F)c(-c2ccc(Cc3ccc(N4N=C(c5ccn(C)n5)C(C)C4CC(=O)O)cc3)c(C)c2)c1 (single isomer, unassigned) [Example 55, Isomer 2, 2-((1-(4-((2′-fluoro-5′-methoxy-3-methyl-[1,1′-biphenyl]-4-yl)methyl)phenyl)-1′,4-dimethyl-4,5-dihydro-1H,1′H-[3,3′-bipyrazol]-5-yl)acetic acid, trans-diastereomer]
